# Assay results from ChEMBL document CHEMBL3885861, “Open TG-GATES”.
# Species: Rattus norvegicus
# Test: Open TG-GATES - Regimen: Daily Repeat
# Type: toxicity, organism-based, Sprague-Dawley
# Design: regimen Daily Repeat, gender Male, age 6 weeks
# Settings: in vivo, po, 6 mg/kg, route gavage, dose level Middle; for APTT / Bas / Eos / Fbg / Hb / Lym / MCH / MCHC / MCV / Mono / Neu / PT / Plat / RBC / Ret / WBC: tissue Blood; for KIDNEY_L / KIDNEY_R / KIDNEY_TOTAL: tissue Kidney; for LIVER: tissue Liver; for ALP / ALT / AST / BUN / CRE / Ca / Cl / DBIL / GLC / IP / K / LDH / Na / PL / RALB / TBIL / TC / TG / TP / gamma-GTP: tissue Plasma
structure (smiles),measurement,setting,value
OCCN1CCN(CCCN2c3ccccc3Sc3ccc(C(F)(F)F)cc32)CC1 [FLUPHENAZINE],TERMINAL_BW,"72 h, time 3 day",198.7 g
same,APTT,"72 h, time 3 day",15.9 s
same,Bas,"72 h, time 3 day",0%
same,Eos,"72 h, time 3 day",0.6%
same,Fbg,"72 h, time 3 day",227.2 mg/dL
same,Hb,"72 h, time 3 day",15.1 g/dL
same,Lym,"72 h, time 3 day",88.4%
same,MCH,"72 h, time 3 day",21.2 pg
same,MCHC,"72 h, time 3 day",33.3%
same,MCV,"72 h, time 3 day",63.7 fL
same,Mono,"72 h, time 3 day",5.8%
same,Neu,"72 h, time 3 day",5.2%
same,PT,"72 h, time 3 day",12.2 s
same,Plat,"72 h, time 3 day",119.2 x10_4/uL
same,RBC,"72 h, time 3 day",711.6 x10_4/ul
same,Ret,"72 h, time 3 day",3.4%
same,WBC,"72 h, time 3 day",119.1 x10_2/uL
same,KIDNEY_L,"72 h, time 3 day",0.9 g
same,KIDNEY_R,"72 h, time 3 day",0.9 g
same,KIDNEY_TOTAL,"72 h, time 3 day",1.8 g
same,LIVER,"72 h, time 3 day",9.5 g
same,ALP,"72 h, time 3 day",909.4 IU/L
same,ALT,"72 h, time 3 day",35 IU/L
same,AST,"72 h, time 3 day",58.6 IU/L
same,BUN,"72 h, time 3 day",24.8 mg/dL
same,CRE,"72 h, time 3 day",0.6 mg/dL
same,Ca,"72 h, time 3 day",10.8 mg/dL
same,Cl,"72 h, time 3 day",106.4 meq/L
same,DBIL,"72 h, time 3 day",0.008 mg/dL
same,GLC,"72 h, time 3 day",177.4 mg/dL
same,IP,"72 h, time 3 day",8 mg/dL
same,K,"72 h, time 3 day",4.6 meq/L
same,LDH,"72 h, time 3 day",84.6 IU/L
same,Na,"72 h, time 3 day",138.4 meq/L
same,PL,"72 h, time 3 day",186.6 mg/dL
same,RALB,"72 h, time 3 day",4.3 g/dL
same,TBIL,"72 h, time 3 day",0.2 mg/dL
same,TC,"72 h, time 3 day",98.4 mg/dL
same,TG,"72 h, time 3 day",112.6 mg/dL
same,TP,"72 h, time 3 day",6.1 g/dL
same,gamma-GTP,"72 h, time 3 day",0.6 IU/L
same,TERMINAL_BW,"[…], time 7 day",230.3 g
same,TERMINAL_BW,"[…], time 14 day",284.3 g
same,TERMINAL_BW,"[…], time 28 day",346.8 g
same,APTT,"[…], time 7 day",16.8 s
same,Bas,"[…], time 7 day",0%
same,Eos,"[…], time 7 day",0.6%
same,Fbg,"[…], time 7 day",224.2 mg/dL
same,Hb,"[…], time 7 day",14 g/dL
same,Lym,"[…], time 7 day",78.6%
same,MCH,"[…], time 7 day",21 pg
same,MCHC,"[…], time 7 day",33.3%
same,MCV,"[…], time 7 day",63.1 fL
same,Mono,"[…], time 7 day",5.6%
same,Neu,"[…], time 7 day",15.2%
same,PT,"[…], time 7 day",12.1 s
same,Plat,"[…], time 7 day",82.3 x10_4/uL
same,RBC,"[…], time 7 day",668.6 x10_4/ul
same,Ret,"[…], time 7 day",3.6%
same,WBC,"[…], time 7 day",95.8 x10_2/uL
same,APTT,"[…], time 14 day",15.9 s
same,Bas,"[…], time 14 day",0%
same,Eos,"[…], time 14 day",0.8%
same,Fbg,"[…], time 14 day",217.2 mg/dL
same,Hb,"[…], time 14 day",14.4 g/dL
same,Lym,"[…], time 14 day",79.6%
same,MCH,"[…], time 14 day",20.1 pg
same,MCHC,"[…], time 14 day",33.3%
same,MCV,"[…], time 14 day",60.5 fL
same,Mono,"[…], time 14 day",5.8%
same,Neu,"[…], time 14 day",14%
same,PT,"[…], time 14 day",12.1 s
same,Plat,"[…], time 14 day",97 x10_4/uL
same,RBC,"[…], time 14 day",716.4 x10_4/ul
same,Ret,"[…], time 14 day",3.6%
same,WBC,"[…], time 14 day",128.9 x10_2/uL
same,APTT,"[…], time 28 day",17.2 s
same,Bas,"[…], time 28 day",0%
same,Eos,"[…], time 28 day",1.2%
same,Fbg,"[…], time 28 day",209.2 mg/dL
same,Hb,"[…], time 28 day",15.6 g/dL
same,Lym,"[…], time 28 day",83%
same,MCH,"[…], time 28 day",19.7 pg
same,MCHC,"[…], time 28 day",33.4%
same,MCV,"[…], time 28 day",58.9 fL
same,Mono,"[…], time 28 day",5%
same,Neu,"[…], time 28 day",10.6%
same,PT,"[…], time 28 day",12.3 s
same,Plat,"[…], time 28 day",89.8 x10_4/uL
same,RBC,"[…], time 28 day",792.6 x10_4/ul
same,Ret,"[…], time 28 day",2.2%
same,WBC,"[…], time 28 day",134.3 x10_2/uL
same,KIDNEY_L,"[…], time 7 day",1 g
same,KIDNEY_R,"[…], time 7 day",1 g
same,KIDNEY_TOTAL,"[…], time 7 day",2 g
same,KIDNEY_L,"[…], time 14 day",1.1 g
same,KIDNEY_R,"[…], time 14 day",1.1 g
same,KIDNEY_TOTAL,"[…], time 14 day",2.3 g
same,KIDNEY_L,"[…], time 28 day",1.2 g
same,KIDNEY_R,"[…], time 28 day",1.2 g
same,KIDNEY_TOTAL,"[…], time 28 day",2.4 g
same,LIVER,"[…], time 7 day",10.9 g
same,LIVER,"[…], time 14 day",11.9 g
same,LIVER,"[…], time 28 day",13.7 g
same,ALP,"[…], time 7 day",836 IU/L
same,ALT,"[…], time 7 day",33 IU/L
same,AST,"[…], time 7 day",62.6 IU/L
same,BUN,"[…], time 7 day",18 mg/dL
same,CRE,"[…], time 7 day",0.5 mg/dL
same,Ca,"[…], time 7 day",10.5 mg/dL
same,Cl,"[…], time 7 day",105.2 meq/L
same,DBIL,"[…], time 7 day",0.012 mg/dL
same,GLC,"[…], time 7 day",170.6 mg/dL
same,IP,"[…], time 7 day",8.4 mg/dL
same,K,"[…], time 7 day",4.8 meq/L
same,LDH,"[…], time 7 day",79.4 IU/L
same,Na,"[…], time 7 day",137.4 meq/L
same,PL,"[…], time 7 day",178.8 mg/dL
same,RALB,"[…], time 7 day",4.1 g/dL
same,TBIL,"[…], time 7 day",0.3 mg/dL
same,TC,"[…], time 7 day",96.4 mg/dL
same,TG,"[…], time 7 day",106 mg/dL
same,TP,"[…], time 7 day",6 g/dL
same,gamma-GTP,"[…], time 7 day",1 IU/L
same,ALP,"[…], time 14 day",859.2 IU/L
same,ALT,"[…], time 14 day",29.4 IU/L
same,AST,"[…], time 14 day",63.2 IU/L
same,BUN,"[…], time 14 day",18 mg/dL
same,CRE,"[…], time 14 day",0.5 mg/dL
same,Ca,"[…], time 14 day",10.7 mg/dL
same,Cl,"[…], time 14 day",103.6 meq/L
same,DBIL,"[…], time 14 day",0 mg/dL
same,GLC,"[…], time 14 day",190.8 mg/dL
same,IP,"[…], time 14 day",7.8 mg/dL
same,K,"[…], time 14 day",4.6 meq/L
same,LDH,"[…], time 14 day",99.2 IU/L
same,Na,"[…], time 14 day",135.2 meq/L
same,PL,"[…], time 14 day",141 mg/dL
same,RALB,"[…], time 14 day",4.2 g/dL
same,TBIL,"[…], time 14 day",0.3 mg/dL
same,TC,"[…], time 14 day",68 mg/dL
same,TG,"[…], time 14 day",109.2 mg/dL
same,TP,"[…], time 14 day",5.9 g/dL
same,gamma-GTP,"[…], time 14 day",1.6 IU/L
same,ALP,"[…], time 28 day",483.8 IU/L
same,ALT,"[…], time 28 day",32.8 IU/L
same,AST,"[…], time 28 day",58.6 IU/L
same,BUN,"[…], time 28 day",21.4 mg/dL
same,CRE,"[…], time 28 day",0.6 mg/dL
same,Ca,"[…], time 28 day",10.7 mg/dL
same,Cl,"[…], time 28 day",107.6 meq/L
same,DBIL,"[…], time 28 day",0.006 mg/dL
same,GLC,"[…], time 28 day",175.2 mg/dL
same,IP,"[…], time 28 day",6.3 mg/dL
same,K,"[…], time 28 day",4.5 meq/L
same,LDH,"[…], time 28 day",75 IU/L
same,Na,"[…], time 28 day",140.4 meq/L
same,PL,"[…], time 28 day",147 mg/dL
same,RALB,"[…], time 28 day",4.2 g/dL
same,TBIL,"[…], time 28 day",0.3 mg/dL
same,TC,"[…], time 28 day",66.4 mg/dL
same,TG,"[…], time 28 day",138.8 mg/dL
same,TP,"[…], time 28 day",6.3 g/dL
same,gamma-GTP,"[…], time 28 day",1.6 IU/L
